Laboratory results published in PubChem BioAssay AID2842 (Southern Research Institute, 2010).
≈ marks a conversion by molar mass, not a printed value.

Each molecule was assayed on M. tuberculosis H37Rv growth inhibition (assay: Mycobacterium tuberculosis H37Rv growth inhibition, putative kinase inhibitor library, confirmatory dose response (AID 2842);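 also: bacteria incubated one week before Alamar blue readout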).
Cc1ccc2c(c1)NC(=O)c1cc(NS(=O)(=O)c3ccc4c(c3)OCCO4)ccc1O2 was tested, and the IC90 was 17.5 µg/mL (≈ 39.9 µM).
COc1ccccc1-c1nnc(NC(=O)c2ccc(-c3ccccc3)cc2)o1 was tested, and the IC90 was 1.48 µg/mL (≈ 3.98 µM).
Work on COc1cc2c3nnc(-c4ccc(C)cc4)c-3cn(Cc3ccc(Cl)cc3)c2cc1OC yielded an IC90 of 4.8 µg/mL (≈ 10.8 µM).
Work on O=C(OC1CCCCC1)c1cc2ccccc2oc1=O yielded an IC90 of 49 µg/mL (≈ 180 µM).
For O=C(Nc1nnc(-c2ccc(Br)cc2)o1)c1sc2ccccc2c1Cl, the IC90 was 6.7 µg/mL (≈ 15.4 µM).
Cc1ccc(C)c(-c2nnc(NC(=O)c3ccc(S(=O)(=O)N(C)c4ccccc4)cc3)o2)c1 gave an IC90 of 13.3 µg/mL (≈ 28.8 µM).
Molecule Cc1ccc(-c2nnc(NC(=O)c3ccc(S(=O)(=O)N4CCC(C)CC4)cc3)o2)c(C)c1 has an IC90 of 46.7 µg/mL (≈ 103 µM).
Work on O=C1C(Cl)=C(Nc2ccccc2O)C(=O)N1c1ccc(Cl)c(Cl)c1 yielded an IC90 of 0.84 µg/mL (≈ 2.19 µM).
In the case of COc1ccc(C(=O)NNc2nc3cc(C)cc(C)c3s2)cc1, the IC90 is reported as 38.8 µg/mL (≈ 118 µM).
O=C(Nc1nnc(-c2ccc(Cl)s2)o1)C1CCCCC1 was tested, and the IC90 was 6.45 µg/mL (≈ 20.7 µM).
CN1CCc2c(sc(NC(=O)c3ccc([N+](=O)[O-])o3)c2C(N)=O)C1 showed an IC90 of 10.5 µg/mL (≈ 30.1 µM).
Molecule COc1cc(-c2nnc(NC(=O)C3CCCCC3)o2)cc(OC)c1OC has an IC90 of 18.4 µg/mL (≈ 50.8 µM).
O=C(OCc1ccco1)c1cc2cc(Br)ccc2oc1=O was tested, and the IC90 was 16.3 µg/mL (≈ 46.7 µM).
With O=C(Nc1nnc(-c2cc(Cl)ccc2Cl)o1)c1ccc(Cl)cc1Cl the IC90 was 0.74 µg/mL (≈ 1.84 µM).
For Fc1cccc2sc(Nc3nnc(-c4ccccc4Cl)o3)nc12, the IC90 was 16.8 µg/mL (≈ 48.3 µM).
For CCCC(=O)Nc1nnc(-c2ccc(Cl)s2)o1, the IC90 was 27.2 µg/mL (≈ 100 µM).
For Cc1ccc(NC(=O)CC2Nc3cccc4cccc(c34)NC2=O)cc1 (centres undefined), the IC90 was 61.8 µg/mL (≈ 179 µM).
COc1ccc(C)c2sc(N(CCCn3ccnc3)C(=O)c3ccc(Cl)s3)nc12 was tested, and the IC90 was 2.69 µg/mL (≈ 6.02 µM).
COc1ccccc1-c1nnc(NC(=O)c2ccco2)o1 gave an IC90 of 13.4 µg/mL (≈ 46.9 µM).
N/C(=N\OC(=O)c1ccccc1F)c1ccccn1 was tested, and the IC90 was 18.7 µg/mL (≈ 72.2 µM).
Molecule CCC(CO)Nc1ncnc2c1cnn2-c1ccc(Cl)c(Cl)c1 (centres undefined) has an IC90 of 14.2 µg/mL (≈ 40.5 µM).
For COC(=O)C(C)Oc1ccc2cc(-c3ccc(OC)c(OC)c3)c(=O)oc2c1 (centres undefined), the IC90 was 6.7 µg/mL (≈ 17.4 µM).
O=C(Nc1nnc(-c2ccc3c(c2)CCCC3)o1)c1cc(Cl)sc1Cl gave an IC90 of 3.53 µg/mL (≈ 8.95 µM).
Fc1cccc2sc(Nc3nnc(-c4ccccc4)o3)nc12 gave an IC90 of 9.14 µg/mL (≈ 29.3 µM).
CC(=O)Oc1cc(C)cc2oc(=O)c3c(c12)CCCC3 was tested, and the IC90 was 6.79 µg/mL (≈ 24.9 µM).
Molecule CCCCOc1ccc(C(=O)Nc2nnc(-c3cc(C)ccc3C)o2)cc1 has an IC90 of 25.4 µg/mL (≈ 69.5 µM).
CCS(=O)(=O)c1cccc(C(=O)Nc2nnc(-c3ccc(Br)cc3)o2)c1 gave an IC90 of 7.76 µg/mL (≈ 17.8 µM).
Cc1ccc(C)c(N2CCN(C(=O)CCCCCn3c(=O)[nH]c4ccsc4c3=O)CC2)c1 was tested, and the IC90 was 10.9 µg/mL (≈ 24 µM).
Work on O=C(NCCCSc1nc2ccccc2o1)Nc1ncccn1 yielded an IC90 of 25.1 µg/mL (≈ 76.1 µM).
With O=C(CCOc1ccccc1)Nc1nnc(-c2cc(Cl)ccc2Cl)o1 the IC90 was 1.79 µg/mL (≈ 4.73 µM).
For Cc1nnc2ccc(-c3cccc(NC(=O)COc4ccc(Cl)cc4)c3)nn12, the IC90 was 23.5 µg/mL (≈ 59.6 µM).
In the case of CCOC(=O)c1csc(Nc2nc3c(SC)cccc3s2)n1, the IC90 is reported as 3.13 µg/mL (≈ 8.91 µM).
With Cc1ccc2nc(N(CCCn3ccnc3)C(=O)c3cccs3)sc2c1 the IC90 was 1.73 µg/mL (≈ 4.52 µM).
Nc1[nH]nc2nc(N3CCCCC3)nc(-c3ccc4c(c3)OCO4)c12 was tested, and the IC90 was 11.6 µg/mL (≈ 34.3 µM).
Work on Cc1cc(C)c2nc(NNC(=O)c3cc(-c4cccs4)nc4ccccc34)sc2c1 yielded an IC90 of 24.6 µg/mL (≈ 57.2 µM).
Work on O=C(Nc1nnc(-c2ccccn2)o1)c1cccc(F)c1 yielded an IC90 of 3.47 µg/mL (≈ 12.2 µM).
In the case of COc1ccc(-c2nnc(SCC(=O)Nc3cc(C)on3)o2)cc1, the IC90 is reported as 6.72 µg/mL (≈ 19.4 µM).
Cc1ccc(-c2nnc(NC(=O)c3ccc(F)cc3)o2)c(C)c1 was tested, and the IC90 was 26.3 µg/mL (≈ 84.5 µM).
With O=C(c1ccco1)N(CCCn1ccnc1)c1nc2ccc(Br)cc2s1 the IC90 was 0.74 µg/mL (≈ 1.72 µM).
COC(=O)c1ccc(CSc2nnc(-c3ccncc3)o2)o1 gave an IC90 of 5.77 µg/mL (≈ 18.2 µM).
Molecule Cc1ccc(C(=O)Nc2nnc(-c3cc(C)ccc3C)o2)c(C)c1 has an IC90 of 7.29 µg/mL (≈ 22.7 µM).
With O=C(CCc1ccccc1)Nc1nnc(-c2cc(Cl)ccc2Cl)o1 the IC90 was 26.6 µg/mL (≈ 73.4 µM).
For Cc1ccc(C)c(-c2nnc(NC(=O)c3ccc([N+](=O)[O-])o3)o2)c1, the IC90 was 1.29 µg/mL (≈ 3.93 µM).
Work on CCC(=O)Nc1nnc(-c2cccs2)o1 yielded an IC90 of 17.1 µg/mL (≈ 76.8 µM).
O=C(Nc1cccc(Cl)c1)c1cccc2nc3ccccc3nc12 gave an IC90 of 4.6 µg/mL (≈ 13.8 µM).
With Cc1cc(C)c2nc(NNC(=O)c3ccc(F)cc3)sc2c1 the IC90 was 3.98 µg/mL (≈ 12.6 µM).
Work on CSc1nnc(C)c(=O)n1COC(=O)c1ccc2ccccc2c1 yielded an IC90 of 3.38 µg/mL (≈ 9.9 µM).
For COc1ccc2nc(Nc3ccc4nc(C)sc4c3)sc2c1, the IC90 was 15.2 µg/mL (≈ 46.5 µM).
With COc1ccc(-c2nnc(NC(=O)c3cccc(C)c3)o2)cc1 the IC90 was 87.7 µg/mL (≈ 283 µM).
Work on O=C(NCC(c1cccs1)N1CCc2ccccc2C1)c1ccc2c(c1)OCO2 (centres undefined) yielded an IC90 of 23.9 µg/mL (≈ 58.7 µM).
In the case of CSc1ccc2nc(Nc3cccc(C)c3C)sc2c1, the IC90 is reported as 18.8 µg/mL (≈ 62.7 µM).
In the case of O=C(NNc1nc2ccc(Cl)cc2s1)c1cc(-c2cccs2)nc2ccccc12, the IC90 is reported as 30.9 µg/mL (≈ 70.8 µM).
For COc1cccc(C(=O)N(CCCn2ccnc2)c2nc3ccc(F)cc3s2)c1OC, the IC90 was 6.75 µg/mL (≈ 15.3 µM).
Work on Cc1ccc(Nc2nc(N3CCN(c4ccc(F)cc4)CC3)nc3nccnc23)cc1C yielded an IC90 of 22.8 µg/mL (≈ 53 µM).
In the case of Cc1ccc(-c2nnc(NC(=O)c3ccccc3Cl)o2)c(C)c1, the IC90 is reported as under 0.2 µg/mL.
Work on Cc1ccc2nc(NNC(=O)c3nc4ccccc4s3)sc2c1 yielded an IC90 of 6.73 µg/mL (≈ 19.8 µM).
Work on COc1ccc(-c2nnc(NC(=O)c3ccccc3F)o2)cc1 yielded an IC90 of 66.9 µg/mL (≈ 214 µM).
In the case of OCCN1CCN(c2nc(Nc3cccc(Cl)c3)c3cnn(-c4ccccc4)c3n2)CC1, the IC90 is reported as 0.73 µg/mL (≈ 1.62 µM).
O=C(CCOc1ccccc1)Nc1nnc(-c2ccccc2)o1 showed an IC90 of 6.68 µg/mL (≈ 21.6 µM).
With CCOc1ccc(-c2nnc3c4cc5c(cc4n(Cc4ccccc4OC)cc2-3)OCO5)cc1 the IC90 was 9.22 µg/mL (≈ 20.3 µM).
CCCCC(=O)Nc1nnc(-c2ccc3c(c2)CCCC3)o1 gave an IC90 of 3.04 µg/mL (≈ 10.2 µM).
In the case of O=C(Nc1nccs1)c1ccc2c(c1)CCCC2, the IC90 is reported as 3.85 µg/mL (≈ 14.9 µM).
COc1cccc(Cn2cc3c(-c4ccc(Cl)cc4)nnc-3c3cc(OC)c(OC)cc32)c1 showed an IC90 of 15.2 µg/mL (≈ 33.1 µM).
For Cc1cn2c3c(=O)[nH]c(=O)n(C)c3nc2n1CCCN(C)Cc1ccccc1, the IC90 was 2.62 µg/mL (≈ 6.89 µM).
Molecule O=C(Nc1nnc(-c2ccc(Br)cc2)o1)c1cc(Cl)sc1Cl has an IC90 of 3.43 µg/mL (≈ 8.18 µM).
Cc1ccc(N=C2NC(=O)C(Cc3ccccc3Cl)S2)cc1 (centres undefined) showed an IC90 of 25.4 µg/mL (≈ 76.9 µM).
In the case of O=[n+]1c2ccccc2n([O-])c2ccccc21, the IC90 is reported as 3.52 µg/mL (≈ 16.6 µM).
In the case of CSc1cccc2sc(Nc3cccc(C)c3)nc12, the IC90 is reported as 12.2 µg/mL (≈ 42.7 µM).
With CCCCn1c(N2CCN(Cc3ccc(Cl)c(Cl)c3)CC2)nc2c1c(=O)[nH]c(=O)n2C the IC90 was 7.15 µg/mL (≈ 15.4 µM).
Cc1ccc(C)c(-c2nnc(NC(=O)c3ccc([N+](=O)[O-])s3)o2)c1 showed an IC90 of 3.09 µg/mL (≈ 8.97 µM).
In the case of O=C(Nc1nnc(-c2ccc3c(c2)CCCC3)o1)C1=COCCO1, the IC90 is reported as 9.82 µg/mL (≈ 30 µM).
Molecule CCOc1cccc2nc(NC(=O)c3ccc(Oc4ccccc4)cc3)sc12 has an IC90 of 13.7 µg/mL (≈ 35.1 µM).
For COc1ccccc1C(=O)Nc1nnc(-c2ccc(F)cc2)o1, the IC90 was 34.9 µg/mL (≈ 111 µM).
With Fc1cccc2sc(Nc3nc(-c4cccs4)cs3)nc12 the IC90 was 25.4 µg/mL (≈ 76 µM).
For COc1cccc(C(=O)Nc2nc3c(s2)CC(C)CC3)c1 (centres undefined), the IC90 was 14.1 µg/mL (≈ 46.7 µM).
Molecule CCOC(=O)COc1cccc(/C=C2\Oc3cc(OC)ccc3C2=O)c1 has an IC90 of 3.52 µg/mL (≈ 9.93 µM).
O=C(Nc1nnc(-c2cccnc2)o1)c1cc(Cl)ccc1Cl gave an IC90 of 27.9 µg/mL (≈ 83.1 µM).
Molecule COC(=O)CSc1ncnc2c1nnn2Cc1ccc(F)cc1 has an IC90 of 1.55 µg/mL (≈ 4.65 µM).
O=C(CCSc1ccccc1)Nc1nnc(-c2ccc3c(c2)CCCC3)o1 was tested, and the IC90 was 1.93 µg/mL (≈ 5.09 µM).
COc1ccccc1-c1cnn2c(Nc3ccc(C)c(C)c3)cc(C)nc12 showed an IC90 of 14.4 µg/mL (≈ 40.3 µM).
In the case of O=C(NC1NC(c2ccccc2)=CS1)c1ccc([N+](=O)[O-])s1 (centres undefined), the IC90 is reported as 3.42 µg/mL (≈ 10.3 µM).
Work on CCOc1ccc2c(c1)c1nnc(-c3ccc(OC)cc3)c-1cn2Cc1ccccc1F yielded an IC90 of 4.73 µg/mL (≈ 11.1 µM).
Work on Cc1ccccc1C(=O)Nc1nnc(-c2cc(Cl)ccc2Cl)o1 yielded an IC90 of 1.27 µg/mL (≈ 3.65 µM).
For COc1ccc(C(=O)Nc2nc3c(s2)CCCC3)cc1OC, the IC90 was 22.8 µg/mL (≈ 71.7 µM).
